Test [1] concerns Staphylococcus aureus ATCC 6538. The test is described as follows: Disk diffusion method, zone of inhibition on lawn plates. As to conditions: polymer mat disk, 37° C., 7 days. The format is cell-based. On the procedure:
(§1) The effectiveness of the CHG polymer mat was investigated using a disk diffusion method on Staphylococcus aureus ATCC 6538 and Escherichia coli ATCC 25922 lawn plates. The plates were prepared for each organism by dispensing and spreading 0.1 mL of the bacterium over the entire surface of prepared tryptic soy agar plates to create a “lawn.” Concentrations of chlorhexidine gluconate (CHG) at 0.25%, 0.5%, and 1.0% were electrospun with Tecoflex to produce an antimicrobial polymer mat. The polymer mats were cut into two 0.5-1.0 inch diameter disks for each CHG concentration. One disk per plate was placed into the center of the bacterial plate The plates were then incubated at 37° C. for 7 days to determine the zone of inhibition or antimicrobial coverage around the disk (measured in millimeters diameter), which simulates the persistence of an antimicrobial dressing to inactivate resident microorganisms on the skin. For S. aureus, 0.25%, 0.50%, and 1.0% CHG was effective showing mean zones of 20 mm, 25 mm, and 25 mm zones, respectively at 7 days, while at the same concentrations E. coli mean zones were 11 mm, 23 mm, and 28 mm.
(In general: A growth-free zone around the sample is the usual read-out of agar diffusion tests.)

Test [2] concerns Escherichia coli ATCC 25922. Described as above. The format is cell-based. To be noted: polymer mat disk, 37° C., 7 days. Here is the method: as §1
[3] abbreviates: 0.25% CHG electrospun with Tecoflex.
Where [4] appears, read: 0.50% CHG electrospun with Tecoflex.
Setting [5] is: 1.0% CHG electrospun with Tecoflex.

One molecule from patent US20060083657A1, “Indicator device having an active agent encapsulated in an electrospun nanofiber” (STERIS Inc., priority 2004, published 2006) can be followed below.

For `N=C(NCCCCCCNC(=N)NC(=N)Nc1ccc(Cl)cc1)NC(=N)Nc1ccc(Cl)cc1.O=C(O)[C@H](O)[C@@H](O)[C@H](O)[C@H](O)CO.O=C(O)[C@H](O)[C@@H](O)[C@H](O)[C@H](O)CO` [CHG, Chlorhexidine Gluconate], the “mean zone of inhibition (diameter)” value was 20 mm in test [1] (setting [3]); 25 mm in test [1] (setting [4]); 25 mm in test [1] (setting [5]); 11 mm in test [2] (setting [3]); 23 mm in test [2] (setting [4]); 28 mm in test [2] (setting [5]).
